Experimental data as given in the NIST ThermoML archive (doi:10.1016/j.tca.2011.02.016).
Numbers after ± are expanded uncertainties.

What was measured:
[1] = 298.15 K; 101.33 kPa; Liquid; Pycnometric method
[2] = molar heat capacity at constant pressure; conditions: 298.15 K; 101.33 kPa; Liquid; Small sample (50 mg) DSC

For `Cn1cc[n+](CCO)c1.N#C[N-]C#N` [3-(2-hydroxyethyl)-1-methyl-1H-imidazol-3-ium dicyanoazanide], the mass density [1] was 1120 ± 10 kg/m3 and the “molar heat capacity at constant pressure” value [2] was 231.85 ± 3.9 J/K/mol.
